Patent publication US20190274937A1, “MICROBIOME-SAFE COSMETIC CLEANING COMPOSITIONS” (Yun NV, priority 2016, published 2019)

Key:
lactobacillus = test: More detailed screening of the products for ingredients responsible for growth retardation (data not shown); type: cell-based
From the text: A more detailed screening of the products (data not shown) led to a few common ingredients found in most shower cosmetics that can be held responsible for the growth retardation in FIG. 1.0. […] As strong and fast working preservatives; phenoxyethanol, parabens, bronopol, sulphites/sulphates, benzylalcohol and others were identified. Most allergens in perfume can also be identified as being harmful for bacteria.

Spread plating = type: cell-based; conditions: surfactants of negative control P3
Procedure: The negative control (P3) has no growth after incubation in MRS. It contains the anionic Sodium Laureth sulphate (14% final) and cocamidopropyl betaine, some of the most commonly used surfactants in present-day soaps.

Row | Substance | effect on bacteria / the present lactobacillus (lactobacillus) | bactericidal effect (Spread plating)
1 | Sodium laureth sulphate | very strong bactericidal effect | bactericidal effect
2 | cocamidopropyl betaine | big negative influence | bactericidal effect
